Measured values from patent US20080220446A1, “Method for Detecting and/or Removing Protein and/or Peptide Comprising a Cross-Beta Structure From an Aqueous Solution Comprising a Protein” (priority 2005, published 2008).
“And” between values parts separate entries of the source, which are not always exact repeats. Equal values may be shown once.

Columns and labels:
[1] = tested on: tPA binding to amyloid-like aggregates; conditions: ELISAs; patent application P57716EP00 and unpublished data; cited from earlier work
platelets = test: Aggregometric assay with washed platelets; format: cell-based, human
Method: The presence of protein(s) and/or peptide(s) with amyloid-like misfolded protein conformation on activated blood platelets was tested with washed platelets in an aggregometric assay. Freshly drawn human aspirin free blood was mixed gently with citrate buffer to avoid coagulation. Blood was spinned for 15 minutes at 150*g at 20° C. and supernatant was collected; platelet rich plasma (PRP). […] After spinning down the platelets upon centrifugation for 15 minutes at 330*g at 20° C., the pellet was resuspended in HEPES-Tyrode buffer pH 6.5. Prostacyclin was added to a final concentration of 10 ng/ml, and the solution was centrifuged for 15 minutes at 330*g at 20° C., with a soft brake. The pellet was resuspended in HEPES-Tyrode buffer pH 7.2 in a way that the final platelet number was adjusted to 200,000/μl. Platelets were kept at 37° C. for at least 30 minutes, before use in the assays, to ensure that they were in the resting state.
For the aggregometric assays, 400 μl platelet solution was added to a glass tube with 100 μl containing the agonist of interest, fibrinogen and CaCl2. Final concentrations of fibrinogen and CaCl2 were 0.5 mg/ml and 3 mM, respectively. A stirring magnet was added and the apparatus (Whole-blood aggregometer, Chrono-log, Havertown, Pa., USA) was blanked. Aggregation was followed in time by measuring the absorbance of the solution, that will decrease in time upon platelet aggregation. As a positive control, 0.5 U/ml thrombin was used, or TRAP. Aggregation was followed for 10 minutes. Influence of 200 μM Thioflavin T, 200 μM Congo red or 1 μM tPA on platelet aggregation was analyzed.

[2] = molecular target: T1, LRP cl-IV binding to BSA-AGE (Bos taurus, UniProt P02769); test: ELISA, interference with LRP cl-IV binding to BSA-AGE; parameters: species or system human; conditions: concentration series, 50 times diluted LRP cl-IV medium
T1 construct: made in house; host or cells: HEK293E/S (LRP cl-IV, culture supernatant)
Method: To test whether amyloid-like crossbeta structure binding compounds tPA, Congo red, Thioflavin T and Thioflavin S interfere with LRP cl-IV binding to BSA-AGE, concentration series of the potential inhibitory amyloid binding moieties were tested in the presence of 50 times diluted medium containing LRP cl-IV. The following inhibitors were used: tPA, Congo red, Thioflavin T (ThT) and Thioflavin S (ThS). As a control to tPA, K2P tPA, which lacks the amyloid-like misfolded protein binding finger domain, was included in the analyses. The influence of tPA and K2P tPA was tested in the presence of 10 mM ε-amino caproic acid to avoid binding of the kringle2 domain of tPA and K2P tPA to lysine- and arginine residues. Binding buffer and K2P tPA serve as negative controls in these inhibition studies. The concentration series was measured in triplicate, the values averaged and standard deviations calculated. Background signals obtained with buffer-coated wells were subtracted. Signals obtained with binding of LRP cluster IV to BSA-AGE was set arbitrarily to a reference binding of 100% and signals obtained with the concentration series of misfolded protein binding moieties and K2P tPA were calculated based on this set reference.

Fn F4-5 = molecular target: T2, Fn F4-5 (Homo sapiens, UniProt P02751); test: Biacore surface plasmon resonance, binding to immobilized Fn F4-5
T2 construct: amino-acids NH2—I182-V276-COOH of Fn F4-5; made in house; host or cells: Saccharomyces cerevisiae
Method: Binding of cross-β structure containing peptides/proteins was studied using surface plasmon resonance technology with a Biacore 2000 apparatus (Biacore AB, Uppsala, Sweden). A standardized amine coupling procedure was used to couple proteins with F domains to a CM5 chip (Biacore AB, Uppsala, Sweden). First, the dextran surface of the chips was activated by a 35 μl injection with a 1:1 mixture of 0.1 M N-hydroxysuccinimide (NHS) and 0.4 M N-ethyl-N′-(dimethylaminopropyl)carbodiimide (EDC) at a flow rate of 5 μl min.^−1. Then, the proteins were covalently coupled to the activated dextran surface. Remaining activated groups in each of the four flow channels were blocked by injection of 35 μl of 1 M ethanolamine hydrochloride pH 8.5. EDC, NHS and ethanolamine hydrochloride were obtained from Biacore. On one chip, on channels 1 to 4, buffer (reference channel), the soluble extracellular part of receptor for advanced glycation endproducts (sRAGE), tPA and K2P-tPA were immobilized. […] Binding of albumin-AGE was determined with a solution of 3.9 μg ml^−1 albumin-AGE in running buffer. albumin-AGE was filtered on a Millex-GV 0.22 μm filter unit (Millipore). […] Binding of Hb-AGE was also tested after centrifugation for 10 min. at 16,000*g alternative to filtration. tPA activation before and after filtration was assessed with a Plg-activation assay. […]

tPA [3] = molecular target: T3, tPA (Homo sapiens, UniProt P00750); test: Plasminogen-activation assay (tPA activation, S-2251); format: biochemical; conditions: 100 μg ml^−1
Method: (§1) Plasmin (Pls) activity was assayed as described^16. Peptides and proteins that were tested for their stimulatory ability were regularly used at 100 μg ml^−1. […] Chromogenic substrate S-2251 (Chromogenix, Instrumentation Laboratory SpA, Milano, Italy) was used to measure Pls activity. Conversion of zymogen factor XII (#233490, Calbiochem, EMD Biosciences, Inc., San Diego, Calif.) to proteolytically active factor XII (factor XIIa) was assayed by measurement of the conversion of chromogenic substrate Chromozym-PK (Roche Diagnostics, Almere, The Netherlands) by kallikrein. Chromozym-PK was used at a concentration of 0.3 mM. Factor XII, human plasma prekallikrein (#529583, Calbiochem) and human plasma cofactor high-molecular weight kininogen (#422686, Calbiochem) were used at concentrations of 1 μg ml^−1. […] Assays were performed using microtiter plates (Costar, Cambridge, Mass., USA). Peptides and proteins were tested for their ability to activate factor XII. 150 μg ml^−1 kaolin, an established activator of factor XII was used as positive control and solvent (H2O) as negative control. The conversion of Chromozym-PK was recorded kinetically at 37° C. for at least 60 minutes. Assays were done in duplicate.
(§2) Formulated protein therapeutics were obtained from the local hospital pharmacy and were used as supplied by the manufacturers. […] Lyophilized therapeutics were dissolved according to the manufacturers recommendations. GH, zinc-insulin, Cealb and gelatin were stored at −20, 4, room temperature, 37 and 65° C. Other protein therapeutics were only kept at 4° C., and assayed for the presence of cross-β structure at shown time points. Enhancement in fluorescence of ThT and Congo red was measured with all formulated protein therapeutics. For this purpose, proteins were diluted to the indicated concentrations. […] Zinc-insulin was diluted tenfold in the activation assay, GH was diluted to a final concentration of 500 μg ml^−1. Activation of factor XII and prekallikrein by the therapeutics was tested in the chromogenic factor XII assay (see above). […] After coating, plates were blocked with Blocking Reagent (Roche Diagnostics, Almere, The Netherlands).
To prepare structurally altered ovalbumin (OVA) with amyloid cross-β structures, purified OVA (Sigma, A-7641, lot 071k7094) was heated to 85° C. One mg ml^−1 OVA in 67 mM NaPi buffer pH 7.0, 100 mM NaCl, was heated for two cycles in PCR cups in a PTC-200 thermal cycler (MJ Research, Inc., Waltham, Mass., USA). In each cycle, OVA was heated from 30 to 85° C. at a rate of 5° C./min. Native OVA (nOVA) and heat-denatured OVA (dOVA) were tested in the ThT fluorescence assay and in the Plg-activation assay. In the fluorescence assay and in the Plg-activation assay, 25 and 100 μg ml^−1 nOVA and dOVA were tested, respectively. TEM images of nOVA and dOVA were taken to check for the presence of large aggregates.
MSA (#126674, Calbiochem) was dissolved in 8 M urea, 100 mM Tris-HCl pH 8.2, at 10 mg ml^−1 final concentration. Dithiothreitol (DTT) was added to a final concentration of 10 mM. Air was replaced by N2 and the solution was incubated for 2 h at room temperature. Then, the solution was transferred to ice and iodoacetamide was added from a 1 M stock to a final concentration of 20 mM. […] Alkyl-MSA was dialyzed against H2O before use. […] In the ThT-fluorescence assay 25 μg ml^−1 nMSA and alkyl-MSA were tested, and in the Plg-activation assay 100 μg ml^−1 was tested. The presence of aggregates or fibrils was analyzed using TEM.
Lyophilized sterile glucagon was dissolved at 1 mg ml^−1 in H2O with 10 mM HCl. The solution was subsequently kept at 37° C. for 24 h, at 4° C. for 14 days and again at 37° C. for 9 days. […] TEM analysis was performed to assess the presence of large multimeric structures.

tPA [4] = molecular target: T3, tPA; test: tPA ELISA with coated protein therapeutics; format: binding; conditions: ELISA, stored at the recommended temperature of 4° C.
Method: as §2

factor XII = molecular target: T4, factor XII (Homo sapiens, UniProt P00748); test: Factor XII / prekallikrein activation assay (Chromozym-PK); format: biochemical
T4 construct: purified human factor XII from plasma (Calbiochem); purchased Calbiochem; host or cells: human plasma
T4 sequence (P00748 20-615): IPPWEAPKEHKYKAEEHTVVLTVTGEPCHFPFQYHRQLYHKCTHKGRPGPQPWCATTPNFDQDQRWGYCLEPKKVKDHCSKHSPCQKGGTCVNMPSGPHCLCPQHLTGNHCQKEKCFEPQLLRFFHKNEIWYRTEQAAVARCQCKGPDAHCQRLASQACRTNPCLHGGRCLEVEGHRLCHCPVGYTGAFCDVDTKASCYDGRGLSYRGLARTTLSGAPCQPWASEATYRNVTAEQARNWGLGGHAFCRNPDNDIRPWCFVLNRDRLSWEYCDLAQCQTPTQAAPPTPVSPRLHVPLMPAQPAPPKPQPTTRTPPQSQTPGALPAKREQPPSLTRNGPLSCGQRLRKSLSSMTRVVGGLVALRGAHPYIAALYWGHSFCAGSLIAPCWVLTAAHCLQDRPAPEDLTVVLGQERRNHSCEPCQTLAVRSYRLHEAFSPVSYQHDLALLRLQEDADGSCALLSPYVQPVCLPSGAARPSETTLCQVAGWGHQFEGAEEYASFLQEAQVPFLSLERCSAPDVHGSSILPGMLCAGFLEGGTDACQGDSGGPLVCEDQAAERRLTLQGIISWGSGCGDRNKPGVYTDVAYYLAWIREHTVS
Method: as §1, with “150 μg ml^−1 kaolin, an established activator of factor XII was used as positive control and solvent (H2O) as negative control.” left out, “Assays were done in duplicate.” left out
Formulated protein therapeutics were obtained from the local hospital pharmacy and were used as supplied by the manufacturers. […] Enhancement in fluorescence of ThT and Congo red was measured with all formulated protein therapeutics. […]

[5] = Congo red fluorescence of protein solutions; format: physicochemical
Method: Background signals from buffer, buffer with Congo red and protein/peptide solution without Congo red were subtracted from corresponding measurements with protein solution incubated with Congo red. Fluorescence was measured in triplicate on a Hitachi F-4500 fluorescence spectrophotometer (Ltd., Tokyo, Japan).
as §2

T2 sequence (P02751 182-276): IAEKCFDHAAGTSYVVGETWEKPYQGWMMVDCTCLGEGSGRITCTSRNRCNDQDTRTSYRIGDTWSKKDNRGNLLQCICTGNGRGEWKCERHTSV
T3 sequence (P00750 36-562): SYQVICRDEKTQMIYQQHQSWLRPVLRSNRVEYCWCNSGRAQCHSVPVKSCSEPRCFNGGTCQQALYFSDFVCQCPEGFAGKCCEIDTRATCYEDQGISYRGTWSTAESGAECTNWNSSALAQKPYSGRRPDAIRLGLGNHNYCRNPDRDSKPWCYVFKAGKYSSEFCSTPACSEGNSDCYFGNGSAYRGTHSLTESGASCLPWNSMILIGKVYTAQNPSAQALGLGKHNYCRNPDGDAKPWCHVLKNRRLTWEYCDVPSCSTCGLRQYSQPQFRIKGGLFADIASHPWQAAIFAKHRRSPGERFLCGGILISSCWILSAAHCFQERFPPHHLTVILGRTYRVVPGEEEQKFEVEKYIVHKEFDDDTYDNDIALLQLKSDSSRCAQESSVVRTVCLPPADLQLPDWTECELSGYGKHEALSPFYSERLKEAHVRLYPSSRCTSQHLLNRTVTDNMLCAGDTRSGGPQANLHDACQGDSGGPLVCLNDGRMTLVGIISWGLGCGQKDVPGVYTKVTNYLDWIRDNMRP
T1 sequence (P02769 25-607): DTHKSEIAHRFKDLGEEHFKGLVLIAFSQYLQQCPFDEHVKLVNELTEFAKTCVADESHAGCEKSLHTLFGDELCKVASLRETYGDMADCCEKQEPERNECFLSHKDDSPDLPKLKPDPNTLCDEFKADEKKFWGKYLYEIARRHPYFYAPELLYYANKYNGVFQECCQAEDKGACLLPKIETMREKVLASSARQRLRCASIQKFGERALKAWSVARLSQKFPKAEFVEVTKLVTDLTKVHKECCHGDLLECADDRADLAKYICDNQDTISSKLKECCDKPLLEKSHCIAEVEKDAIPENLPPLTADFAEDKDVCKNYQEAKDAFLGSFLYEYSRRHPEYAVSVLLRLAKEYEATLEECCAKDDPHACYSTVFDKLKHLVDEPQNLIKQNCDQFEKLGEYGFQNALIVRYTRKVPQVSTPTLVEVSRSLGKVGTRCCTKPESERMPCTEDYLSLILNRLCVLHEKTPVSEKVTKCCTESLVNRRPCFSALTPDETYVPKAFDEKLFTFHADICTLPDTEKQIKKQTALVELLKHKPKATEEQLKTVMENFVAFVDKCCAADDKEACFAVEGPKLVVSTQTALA

Nc1c(/N=N/c2ccc(-c3ccc(/N=N/c4cc(S(=O)(=O)O)c5ccccc5c4N)cc3)cc2)cc(S(=O)(=O)O)c2ccccc12 [Congo red]
competition for tPA binding to amyloid-like aggregates [1]: can efficiently compete for tPA binding | inhibition at 200 µM (platelets; Homo sapiens, Platelet, 200 μM, read-out: inhibition of platelet aggregation): ≤ 30% | influence on binding of LRP cl-IV to BSA-AGE [2]: inhibit binding of LRP cl-IV to BSA-AGE to a large extent

endostatin
binding to the Fn F4-5 doublet (Fn F4-5; Biacore, native Hb at 25 nM): bound | Kd (Fn F4-5; immobilized Fn F4-5, Biacore CM5 chip, read-out: concentration of ligand that results in half maximum binding to Fn F4-5): ≤ 800 nM and 800 nM | tPA activating properties (tPA [3]): absence of tPA activating properties

Gelatin
binding of tPA (tPA [4]): binding of tPA was established | activation of factor XII (factor XII; kept at 37° C.): activated factor XII | activation of the factor XII/prekallikrein contact system (factor XII; stored at 4° C.): not | enhancement of Congo red fluorescence ([5]; stored at 4° C. and 37° C.): enhanced Congo red fluorescence in a storage temperature dependent manner | enhancement of Congo red fluorescence ([5]; stored at the recommended storage temperature of 4° C.): enhanced the fluorescence of Congo red

tPA: tissue-type plasminogen activator
inhibition of thrombin-induced aggregation (platelets; 1 μM): 55%
